From patent publication US6841682B2, “Heterocycles useful in the treatment of benign prostatic hyperplasia” (Janseen Pharmaceutica N.V., priority 1997, dated 2005)
pIC50: −log10 of the molar value.

Molecular target: T1, α1b-AR (Homo sapiens, UniProt P35368)
T1 construct: expressed in transfected cells; host or cells: COS cells (pcDNA3 vector, DEAE-dextran transient transfection); membrane preparation
T1 sequence (P35368 1-520): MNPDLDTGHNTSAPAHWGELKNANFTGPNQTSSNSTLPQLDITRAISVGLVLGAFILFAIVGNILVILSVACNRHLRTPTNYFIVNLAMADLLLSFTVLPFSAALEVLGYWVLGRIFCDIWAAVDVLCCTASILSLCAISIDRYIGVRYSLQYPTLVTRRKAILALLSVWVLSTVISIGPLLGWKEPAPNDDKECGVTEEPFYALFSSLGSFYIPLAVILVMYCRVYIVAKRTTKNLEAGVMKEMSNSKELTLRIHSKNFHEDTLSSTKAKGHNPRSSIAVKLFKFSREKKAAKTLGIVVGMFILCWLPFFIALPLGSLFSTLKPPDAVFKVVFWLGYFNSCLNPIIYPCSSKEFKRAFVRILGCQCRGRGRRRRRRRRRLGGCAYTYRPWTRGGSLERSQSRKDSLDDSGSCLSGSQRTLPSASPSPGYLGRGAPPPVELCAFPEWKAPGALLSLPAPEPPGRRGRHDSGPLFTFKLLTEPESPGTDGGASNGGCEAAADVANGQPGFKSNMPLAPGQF
Experiment: radioligand ([125I]-HEAT) receptor binding assay, COS cell membranes, α1b-AR
Settings: Tables A-J; [125I]-HEAT 50 pM, COS membranes; read-out: α1b IC50
Source text: The first assay tested the ability of compounds of Formula I to bind to membrane bound receptors α1a-AR, α1b-AR and α1d-AR.
The DNA sequences of the three cloned human α1-AR subtypes have been published. […] We used published DNA sequence information to design-primers for use in RT-PCR amplification of each subtype to obtain cloned cDNAs. Human poly A+ RNA was obtained from commercially available sources and included hippocampus and prostate samples, sources which have been cited in the literature. For the primary screen a radio ligand binding assay was used which employed membrane preparations from cells expressing the individual cloned receptor cDNAs. Radiolabeled ligands with binding activity on all three subtypes (non-selective) are commercially available ([125I]-HEAT, [3H]-prazosin).
Each α1 receptor subtype was cloned from poly A+ RNA by the standard method of reverse transcription-polymerase chain reaction (RT-PCR). The following sources of polyA+ RNA were used for the cloning of the al receptor subtypes: α1a-AR, human hippocampus and prostate, α1b-AR, human hippocampus, α1d-AR, human hippocampus. The resulting cDNAs were cloned into the pcDNA3 mammalian expression vector (Invitrogen Corp., San Diego Calif.). Each DNA was sequenced for verification and to detect any possible mutations introduced during the amplification process. Any deviation in sequence from the published consensus for each receptor subtype was corrected by site-directed mutagenesis.
The three α1-AR subtypes (a, b, d) were transfected into COS cells using a standard DEAE-dextran procedure with a chloroquine shock. In this procedure, each tissue culture dish (100 mm) was inoculated with 3.5×10^6 cells and transfected with 10 μg of DNA. Approximately 72 hours post-transfection, the cells were harvested and COS membranes were prepared. Transfected COS cells from 25 plates (100 mm) were scraped and suspended in 15 mL of TE buffer (50 mM Tris-HCl, 5 mM EDTA, pH7.4). The suspension was disrupted with a homogenizer. It was then centrifuged at 1000×g for 10 minutes at 4° C. The supernatant was centrifuged at 34,500×g for 20 minutes at 4° C. The pellet was resuspended in 5 mL TNE buffer (50 mM Tris-HCl, 5 mM EDTA, 150 mM NaCl, pH7.4). The resulting membrane preparation was aliquoted and stored at −70° C. The protein concentration was determined following membrane solubilization with TritonX-100.
The ability of each compound to bind to each of the α1-AR subtypes was assessed in a receptor binding assay. [125I]-HEAT, a non-selective α1-AR ligand, was used as the radiolabeled ligand. Each well of a 96-well plate received: 140 μL TNE, 25 μL [125I]-HEAT diluted in TNE (50,000 cpm; final concentration 50 pM), 10 μL test compound diluted in DMSO (final concentration 1 pM-10 μM), […] COS cell membrane preparation expressing one of the three α1-AR subtypes (0.05-0.2 mg membrane protein). The plate was incubated for 1 hour at room temperature and the reaction mixtures were filtered through a Packard GF/C Unifilter filter plate. The filter plate was dried for 1 hour in a vacuum oven. Scintillation fluid ([…]) was added to each well, and the filter plate was counted in a Packard Topcount scintillation counter. Data was analyzed using GraphPad Prism software.
Tables A-J list the IC50 values expressed in nanomolar concentration for select compounds of the invention in all receptor subtypes.

SMILES | pIC50
CC(C)Oc1ccccc1N1CCN(Cc2cc(CN3CCCCC3=O)n[nH]2)CC1 [Compound 3] | 5.41
CC(C)Oc1ccccc1N1CCN(Cc2ncc(CN3CCCCC3=O)s2)CC1 [Compound 16] | 5.07
